These results are taken from US8871681B2, “Herbicidal compositions comprising 4-amino-3-chloro-5-fluoro-6-(4-chloro-2-fluoro-3-methoxyphenyl) pyridine-2-carboxylic acid or a derivative thereof and certain sulfonylureas” (Dow AgroSciences LLC, priority 2012, dated 2014).

Experiment [1] concerns FIMMI (Fimbristylis miliacea, globe fringerush). The experiment is described as follows: In-water applied weed control, transplanted paddy rice, greenhouse (Example II). The experiment is classed as in vivo, Fimbristylis miliacea (L.) Vahl. The procedure:
(§1) Weed seeds or nutlets of the desired test plant species were planted in puddled soil (mud) prepared by mixing a shredded, non-sterilized mineral soil (50.5 percent silt, 25.5 percent clay, and 24 percent sand, with a pH of about 7.6 and an organic matter content of about 2.9 percent) and water at a 1:1 volumetric ratio. The prepared mud was dispensed in 365 mL aliquots into 16-ounce (oz.) non-perforated plastic pots with a surface area of 86.59 square centimeters (cm^2) leaving a headspace of 3 centimeters (cm) in each pot. Rice seeds were planted in Sun Gro MetroMix® 306 planting mixture, which typically has a pH of 6.0 to 6.8 and an organic matter content of about 30 percent, in plastic plug trays. Seedlings at the second or third leaf stage of growth were transplanted into 860 mL of mud contained in 32-oz. non-perforated plastic pots with a surface area of 86.59 cm^2 4 days prior to herbicide application. The paddy was created by filling the headspace of the pots with 2.5 to 3 cm of water. When required to ensure good germination and healthy plants, a fungicide treatment and/or other chemical or physical treatment was applied. The plants were grown for 4-22 days in a greenhouse with an approximate 14 h photoperiod which was maintained at about 29′C during the day and 26° C. during the night. Nutrients were added as Osmocote® (19:6:12, N:P:K+minor nutrients) at 2 g per 16-oz. pot and 4 g per 32-oz. pot. Water was added on a regular basis to maintain the paddy flood, and supplemental lighting was provided with overhead metal halide 1000-Watt lamps as necessary. The plants were employed for testing when they reached the first through fourth true leaf stage.
(§2) Treatments consisted of the acid or esters of 4-amino-3-chloro-5-fluoro-6-(4-chloro-2-fluoro-3-methoxy-phenyl)pyridine-2-carboxylic acid (compound A) each formulated as an SC and various herbicidal components alone and in combination. Forms of compound A were applied on an acid equivalent basis.
(§3) Other herbicidal components were applied on an active ingredient basis and included acetolactate synthase (ALS)-inhibiting herbicides (sulfonylurea chemical class), azimsulfuron formulated as Gulliver®, bensulfuron-methyl formulated as Londax® 60DF, cyclosulfamuron (technical grade materail), ethoxysulfuron formulated as Sunrice® 15 WDG, flucetosulfuron formulated as Sukedachi® 1KG G, imazosulfuron formulated as Brazzos®, metsulfuron-methyl formulated as Lorate®, nicosulfuron formulated as Accent®, orthosulfamuron formulated as Strada® WG, propyrisulfuron formulated as Zeta One®, and rimsulfuron formulated as Matrix® WG.
(§4) Treatment requirements for each compound or herbicidal component were calculated based upon the rates being tested, the concentration of active ingredient or acid equivalent in the formulation, an application volume of 2 mL per component per pot, and an application area of 86.59 cm^2 per pot.
(§5) For formulated compounds, a measured amount was placed in an individual 100 or 200 mL glass vial and was dissolved in a volume of 1.25% (v/v) Agri-Dex® crop oil concentrate to obtain application solutions.
For technical grade compounds, a weighed amount was placed in an individual 100 to 200 mL glass vial and was dissolved in a volume of acetone to obtain concentrated stock solutions. […] The concentrated stock solutions obtained were diluted with an equivalent volume of an aqueous mixture containing 2.5% (v/v) crop oil concentrate so that the final application solutions contained 1.25% (v/v) crop oil concentrate.
Applications were made by injecting with a pipetter appropriate amounts of the application solutions, individually and sequentially, into the aqueous layer of the paddy. Control plants were treated in the same manner with the solvent blank. Applications were made so that all treated plant material received the same concentrations of acetone and crop oil concentrate. […]

Experiment [2] concerns VERPE (Veronica persica, bird's-eye speedwell). The experiment is described as follows: Post-emergence foliar-applied weed control in cereal crops, greenhouse (Example III). It counts as in vivo, Veronica persica Poir. In outline:
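Greenhouse plants at the second or third true leaf stage (14 hour photoperiod, about 18/17 °C) were track-sprayed at 187 L/ha with Compound A SC, a second cereal herbicide, or their combinations, using 1.25% v/v crop oil concentrate. Injury was scored visually at 20-22 days against solvent-blank controls on a 0–100% scale. Expected mixture effects were calculated with Colby's equation.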

Experiment [3] concerns ECHCG (Echinochloa crus-galli, barnyardgrass). The experiment is described as follows: In-water applied weed control, transplanted paddy rice, greenhouse (Example II). It counts as in vivo, Echinochloa crus-galli (L.) Beauv. Here is the method:
as §1, §2, §3, §4, §5
For technical grade compounds, a weighed amount was placed in an individual 100 to 200 mL glass vial and was dissolved in a volume of acetone to obtain concentrated stock solutions. […]

Experiment [4] has as its system LAMPU (Lamium purpureum, purple deadnettle). The experiment is described as follows: Post-emergence foliar-applied weed control in cereal crops, greenhouse (Example III). It counts as in vivo, Lamium purpureum (L.). The procedure: Seeds of the desired test plant species were planted in Sun Gro MetroMix® 306 planting mixture, which typically has a pH of 6.0 to 6.8 and an organic matter content of about 30 percent, in plastic pots with a surface area of 103.2 square centimeters (cm^2). When required to ensure good germination and healthy plants, a fungicide treatment and/or other chemical or physical treatment was applied. The plants were grown for 7-36 days in a greenhouse with an approximate 14 hour photoperiod which was maintained at about 18° C. during the day and 17° C. during the night. Nutrients and water were added on a regular basis and supplemental lighting was provided with overhead metal halide 1000-Watt lamps as necessary. The plants were employed for testing when they reached the second or third true leaf stage.
Treatments consisted of the benzyl ester of 4-amino-3-chloro-5-fluoro-6-(4-chloro-2-fluoro-3-methoxy-phenyl)pyridine-2-carboxylic acid (Compound A), formulated as an SC (suspension concentrate), and a second cereal herbicide alone and in combination.
Measured aliquot of benzyl ester of 4-amino-3-chloro-5-fluoro-6-(4-chloro-2-fluoro-3-methoxy-phenyl)pyridine-2-carboxylic acid (Compound A) was placed in 25 milliliter (mL) glass vials and diluted in a volume of 1.25% (v/v) Agri-dex crop oil concentrated to obtain stock solutions. Compound requirements are based upon a 12 mL application volume at a rate of 187 liters per hectare (L/ha). Spray solutions of the second cereal herbicide and experimental compound mixtures were prepared by adding the stock solutions to the appropriate amount of dilution solution to form 12 mL spray solution with active ingredients in two- and three-way combinations. Formulated compounds were applied to the plant material with an overhead Mandel track sprayer equipped with an 8002E nozzle calibrated to deliver 187 L/ha over an application area of 0.503 square meters (m^2) at a spray height of 18 inches (46 cm) above average plant canopy. Control plants were sprayed in the same manner with the solvent blank.
The treated plants and control plants were placed in a greenhouse as described above and watered by sub-irrigation to prevent wash-off of the test compounds. After 20-22 days, the condition of the test plants as compared with that of the control plants was determined visually and scored on a scale of 0 to 100 percent where 0 corresponds to no injury and 100 corresponds to complete kill.
Colby's equation was used to determine the herbicidal effects expected from the mixtures (Colby, S. R. 1967. Calculation of the synergistic and antagonistic response of herbicide combinations. Weeds 15:20-22.).
The following equation was used to calculate the expected activity of mixtures containing two active ingredients, A and B: Expected=A+B−(A×B/100)

Setting [5] is: Table 51, after 20-22 days, 8.75 gai/ha alone.
Where [6] appears, read: Table 57, after 20-22 days, 8.75 gai/ha Compound A Benzyl Ester alone.

Consider `COc1c(Cl)ccc(-c2nc(C(=O)OCc3ccccc3)c(Cl)c(N)c2F)c1F` [Compound A Benzyl Ester], for which the “Visual Weed Control (%) - 21 DAA FIMMI Obs” value in experiment [1] (Table 48, 8 gae/ha alone) worked out at 15%; in experiment [1] (Table 48, 16 gae/ha alone), 65%; in experiment [1] (Table 48, 32 gae/ha alone), 75%. Moreover, the “Weed Control VERPE Obs” value is 50% in experiment [2] (setting [5]); 50% in experiment [2] (Table 53, after 20-22 days, 8.75 gai/ha alone); 50% in experiment [2] (Table 55, after 20-22 days, 8.75 gai/ha alone); 50% in experiment [2] (setting [6]). In addition, the “Visual Weed Control (%) - 20 DAA ECHCG Obs” value stood at 15% in experiment [3] (Table 50, 4.38 gae/ha alone); 20% in experiment [3] (Table 50, 8.75 gae/ha alone); 40% in experiment [3] (Table 50, 17.5 gae/ha alone). The “Weed Control LAMPU Obs” value in experiment [4] (setting [5]) and in experiment [4] (setting [6]) was 83% each time.
